Consider six compounds from paper PMC3510433, “Adamantyl carboxamides and acetamides as potent human 11β-hydroxysteroid dehydrogenase type 1 inhibitors” (Bioorganic & Medicinal Chemistry, 2012).

One data set has as its target T1, human 11β-HSD1 (Homo sapiens, UniProt P28845).
T1 construct: expressed in transfected cells; host or cells: HEK-293 (human), stably transfected
Nature of the data set: 11β-HSD1 inhibition, human HEK-293 cell based assay (SPA). The settings on record: for IC50: HEK-293 cells stably transfected with HSD11B1, mean of 3 measurements. How it is done: 11β-HSD1 inhibition was measured in intact human HEK-293 cells to reveal the true inhibitory activity. Differences in observed effects for different compounds may reflect combinatorial factors including the ability to penetrate the cell membrane, the stability within the cell and the binding ability to the enzyme.
The cell-based assays were conducted on the human HEK-293 cell line stably transfected with the HSD11B1 gene.[28] 11β-HSD1 activity was determined by measuring the amount of tritiated product formed using a scintillation proximity assay (SPA).
Cells were incubated in 96-well micro-plates in the presence of tritiated cortisone substrate and the assay plates contained internal high and low controls to allow calculation of percentage inhibition. Each well of a 96-well culture plate was seeded with human 11β-HSD1 overexpressed HEK293 cells in 100 μL medium. When the cells were 80% confluent, the medium was removed from each well then 100 μL of fresh, serum-free, medium containing ^3H-cortisone (22 nM) and test compound in 1% DMSO was added. The control wells were also dispensed. […] The plate was incubated at 37 °C for 2 h, after which 50 μL of medium was removed from each well and transferred to a microplate containing 100 μL of a pre-incubated mixture of anti-cortisol antibody and SPA bead. The mixture was incubated with gentle shaking until equilibrium was reached, before transferring to a scintillation counter to establish the enzyme activity in each sample.
The compounds were initially tested at a concentration of 1 μM. Those compounds showing over 70% inhibition of 11β-HSD1 at 1 μM were subjected to an IC50 measurement. A Merck compound 544 was used as the reference compound in the assay (IC50 = 50 ± 20 nM).[19] The IC50 values are reported as the mean value of 3 measurements with variance less than 20%. IC50 values were calculated from the dose-response curve using Microsoft Excel add-in XLfit with a Four Parameter Logistic nonlinear regression model.

The target in data set [1] is human cytochrome P450 3A4-BFC (Homo sapiens, UniProt P08684). Put plainly: Inhibition of human cytochrome P450 3A4-BFC (7-benzyloxy-4-(trifluoromethyl)coumarin). The format is in vitro ADME. The note with it: mean value of two measurements. An excerpt:
(§1) To identify potential problems with these compounds interfering with the metabolism of other drugs, compounds 3, 4, 15 and 41 were studied for their inhibition of the key human cytochrome P450 enzymes: 1A2, 2C9, 2C19, 2D6, 3A4-BFC (7-benzyloxy-4-(trifluoromethyl)coumarin) and 3A4-BQ (7-benzyloxyquinoline) (Table 6).

Data set [2] has as its target human cytochrome P450 2C19 (Homo sapiens, UniProt P33261). Nature of the data set: Inhibition of human cytochrome P450 2C19. The format is in vitro ADME. The settings on record: for IC50: mean value of two measurements; for Percentage inhibition of 2C19: 10 μM.
Excerpt: as §1

Data set [3] addresses human cytochrome P450 2D6 (Homo sapiens, UniProt P10635). Nature of the data set: Inhibition of human cytochrome P450 2D6. The format is in vitro ADME. The settings on record: for IC50: mean value of two measurements; for Percentage inhibition of 2D6: 10 μM.
Excerpt: as §1

The target of data set [4] is human cytochrome P450 3A4-BQ (Homo sapiens, UniProt P08684). Put plainly: Inhibition of human cytochrome P450 3A4-BQ (7-benzyloxyquinoline). The format is in vitro ADME. The settings on record: for IC50: mean value of two measurements; for Percentage inhibition of 3A4-BQ: 10 μM.
Excerpt: as §1

Data set [5] concerns the target T2, human cytochrome P450 1A2 (Homo sapiens, UniProt P05177).
T2 sequence (P05177 1-516): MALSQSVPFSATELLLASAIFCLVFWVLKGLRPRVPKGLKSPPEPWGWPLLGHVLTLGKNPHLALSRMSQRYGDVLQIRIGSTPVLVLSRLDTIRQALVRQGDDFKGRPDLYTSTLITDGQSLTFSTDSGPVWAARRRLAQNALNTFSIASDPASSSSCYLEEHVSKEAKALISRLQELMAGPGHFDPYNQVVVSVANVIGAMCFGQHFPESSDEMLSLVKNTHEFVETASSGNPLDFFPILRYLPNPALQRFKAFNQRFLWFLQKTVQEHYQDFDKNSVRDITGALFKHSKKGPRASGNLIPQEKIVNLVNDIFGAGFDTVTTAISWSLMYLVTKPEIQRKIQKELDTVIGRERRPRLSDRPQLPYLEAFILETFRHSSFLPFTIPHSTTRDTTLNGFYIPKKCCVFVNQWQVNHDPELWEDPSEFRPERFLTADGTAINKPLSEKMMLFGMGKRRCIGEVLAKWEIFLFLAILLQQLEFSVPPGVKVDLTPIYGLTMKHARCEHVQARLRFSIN
Put plainly: Inhibition of human cytochrome P450 1A2. The note with it: for IC50: mean value of two measurements; for Percentage inhibition of 1A2: 10 μM. Format: in vitro ADME.
Excerpt: as §1

Data set [6] concerns the target human cytochrome P450 2C9 (Homo sapiens, UniProt P11712). Nature of the data set: Inhibition of human cytochrome P450 2C9. The note with it: for IC50: mean value of two measurements; for Percentage inhibition of 2C9: 10 μM. Format: in vitro ADME.
Excerpt: as §1

For data set [7], the system named is CYP 2CA (so in the source), CYP3A4. Put plainly: Inhibition of the key human cytochrome P450 enzymes (panel, summary statements). The format is in vitro ADME. The settings on record: human; 2CA, 3A4-BFC and 3A4-BQ.
Excerpt: as §1

Data set [8] is described as follows: Stability in incubation with human liver microsomes. Format: in vitro ADME. The settings on record: 37 °C, NADPH; for half-life: 40 min. How it is done: Potent inhibitors (3 and 15) were incubated at 37 °C for 40 min with human liver microsomes in the presence of the cofactor NADPH to evaluate their stability under such conditions. The remaining parent compound was measured using a HPLC method.
(In general: Liver microsomes are a subcellular fraction often used to study metabolism.)

Data set [9] in a line: Membrane permeability, Caco-2 cell model. Format: in vitro ADME. The settings on record: human, Caco-2; apical to basolateral, 20 μM. The source says: (§2) Compound 3 was studied for its membrane permeability using the Caco-2 cell model.
(Caco-2 monolayers are a common model of the intestinal barrier.)

A further data set concerns Caco-2 cell model. Nature of the data set: Membrane permeability, Caco-2 cell model. Format: in vitro ADME. The note with it: Caco-2, 20 μM.
Excerpt: as §2

Data set [10] has as its system key human cytochrome P450 enzymes. Put plainly: Inhibition of the key human cytochrome P450 enzymes (panel, summary statements). Format: in vitro ADME.
Excerpt: as §1

Entries after “also recorded” stand apart in the source; their conditions may differ. Marks after values point to notes of the source that are not given here.

Chain of human cytochrome P450 2C9 (P11712 whole entry): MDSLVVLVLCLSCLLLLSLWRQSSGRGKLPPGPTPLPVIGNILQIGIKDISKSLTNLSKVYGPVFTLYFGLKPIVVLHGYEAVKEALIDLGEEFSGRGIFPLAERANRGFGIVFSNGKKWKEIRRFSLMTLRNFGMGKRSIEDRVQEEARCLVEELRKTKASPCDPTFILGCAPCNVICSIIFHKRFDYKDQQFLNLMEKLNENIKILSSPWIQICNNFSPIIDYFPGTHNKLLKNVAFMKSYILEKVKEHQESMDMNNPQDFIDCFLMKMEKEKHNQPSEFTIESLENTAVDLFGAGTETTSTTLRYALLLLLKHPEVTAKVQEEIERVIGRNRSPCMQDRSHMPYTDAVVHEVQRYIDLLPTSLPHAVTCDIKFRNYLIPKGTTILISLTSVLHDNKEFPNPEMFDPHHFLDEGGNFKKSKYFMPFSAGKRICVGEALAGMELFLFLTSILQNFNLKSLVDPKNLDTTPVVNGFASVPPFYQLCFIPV
Chain of human cytochrome P450 2D6 (P10635 whole entry): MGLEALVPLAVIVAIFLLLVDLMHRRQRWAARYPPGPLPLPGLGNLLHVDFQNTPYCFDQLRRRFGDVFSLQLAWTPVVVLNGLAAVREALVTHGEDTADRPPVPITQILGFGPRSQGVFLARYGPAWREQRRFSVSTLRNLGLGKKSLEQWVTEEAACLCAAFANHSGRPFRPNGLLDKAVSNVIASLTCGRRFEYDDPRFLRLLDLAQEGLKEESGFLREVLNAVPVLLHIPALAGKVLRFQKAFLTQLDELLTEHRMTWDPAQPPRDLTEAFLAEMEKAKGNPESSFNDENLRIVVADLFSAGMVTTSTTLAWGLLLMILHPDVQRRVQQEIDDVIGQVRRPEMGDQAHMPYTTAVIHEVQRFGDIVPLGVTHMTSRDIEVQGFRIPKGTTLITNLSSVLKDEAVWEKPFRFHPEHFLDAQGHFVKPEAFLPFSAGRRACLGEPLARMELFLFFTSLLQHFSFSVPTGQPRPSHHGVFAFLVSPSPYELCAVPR
Chain of human cytochrome P450 3A4-BQ (P08684 whole entry): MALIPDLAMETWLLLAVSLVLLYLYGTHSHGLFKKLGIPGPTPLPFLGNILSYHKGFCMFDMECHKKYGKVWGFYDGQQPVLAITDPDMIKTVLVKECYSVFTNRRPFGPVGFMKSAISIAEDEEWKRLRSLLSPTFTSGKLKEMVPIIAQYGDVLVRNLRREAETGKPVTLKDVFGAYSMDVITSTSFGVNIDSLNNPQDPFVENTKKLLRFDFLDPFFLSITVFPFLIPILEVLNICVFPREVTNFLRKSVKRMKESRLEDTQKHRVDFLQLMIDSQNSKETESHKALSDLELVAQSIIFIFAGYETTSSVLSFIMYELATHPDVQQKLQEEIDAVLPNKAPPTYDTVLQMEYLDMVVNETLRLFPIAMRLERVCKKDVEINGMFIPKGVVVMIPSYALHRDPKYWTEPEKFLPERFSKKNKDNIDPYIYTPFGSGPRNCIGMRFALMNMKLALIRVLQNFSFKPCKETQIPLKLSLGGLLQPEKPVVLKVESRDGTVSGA
Chain of human cytochrome P450 3A4-BFC (P08684 whole entry): as above
Chain of human cytochrome P450 2C19 (P33261 whole entry): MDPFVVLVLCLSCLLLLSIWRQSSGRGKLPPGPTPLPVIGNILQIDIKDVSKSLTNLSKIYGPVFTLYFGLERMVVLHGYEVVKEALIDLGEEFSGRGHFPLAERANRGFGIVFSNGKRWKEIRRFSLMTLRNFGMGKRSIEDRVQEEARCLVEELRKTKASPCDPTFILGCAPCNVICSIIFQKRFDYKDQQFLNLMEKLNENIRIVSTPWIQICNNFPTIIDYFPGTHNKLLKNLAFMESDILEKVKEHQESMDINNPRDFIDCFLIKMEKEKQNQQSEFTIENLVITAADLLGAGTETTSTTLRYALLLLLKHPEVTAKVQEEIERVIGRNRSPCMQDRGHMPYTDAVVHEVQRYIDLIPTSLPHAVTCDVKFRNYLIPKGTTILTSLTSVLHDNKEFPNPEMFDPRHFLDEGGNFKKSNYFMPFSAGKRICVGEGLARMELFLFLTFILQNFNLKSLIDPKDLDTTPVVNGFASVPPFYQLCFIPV
T1 sequence (P28845 whole entry): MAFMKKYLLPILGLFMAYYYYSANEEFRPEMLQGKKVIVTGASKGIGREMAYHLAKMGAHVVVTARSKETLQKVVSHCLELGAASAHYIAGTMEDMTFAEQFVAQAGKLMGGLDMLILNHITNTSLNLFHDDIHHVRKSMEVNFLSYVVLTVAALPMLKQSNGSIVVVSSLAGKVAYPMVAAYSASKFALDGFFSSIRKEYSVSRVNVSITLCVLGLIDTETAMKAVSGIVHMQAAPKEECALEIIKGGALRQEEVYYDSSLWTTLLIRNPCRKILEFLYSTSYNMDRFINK

`Cc1ccc(C2(C(=O)N(C)Cc3cccs3)CC2)cc1` [Compound 41, N-Methyl-N-(thiophen-2-ylmethyl)-1-p-tolylcyclopropanecarboxamide]: the IC50 (as a rule, the concentration that inhibits the measured activity by half) was 0.28 µM against human 11β-HSD1; 7.3 µM in data set [1]; more than 100 µM in [2]; 72 µM in [3]; 1.6 µM in [4]; more than 100 µM in [5]. Moreover, the IC50 in data set [6] was 4.5 µM; in [7], 1.6 to 7.3 µM.
For `CN(Cc1cccs1)C(=O)CC12CC3CC(CC(C3)C1)C2` [Compound 4, 2-(Adamantan-1-yl)-N-methyl-N-(thiophen-2-ylmethyl)acetamide], the IC50 on human 11β-HSD1 amounted to 0.308 µM; in data set [1], 0.15 µM. Further, the “Percentage inhibition of 2C19” value in data set [2] is listed as 80% ^a. Besides, the “Percentage inhibition of 2D6” value in data set [3] amounted to 9% ^a. The “Percentage inhibition of 3A4-BQ” value in [4] was found to be 66% ^a. In addition, in [5], the “Percentage inhibition of 1A2” value was determined as 1% ^a. Besides, the “Percentage inhibition of 2C9” value in data set [6] worked out at 49% ^a.
For `CN(Cc1cccs1)C(=O)C12CC3CC(CC(C3)C1)C2` [Compound 3], at human 11β-HSD1, the IC50 was 0.229 µM. Besides, in data set [8], the half-life (in general, the time in which the quantity being followed falls by half) lay within 1 to 1.17 h and the “stability with human liver microsomes (in words)” value is “moderately stable”. The compound also returned a half-maximal inhibitory concentration (IC50) in data set [1] of 10 µM. Further, the “Percentage inhibition of 2C19” value in [2] was 13% ^a. In addition, the “Percentage inhibition of 2D6” value in [3] stood at 2% ^a. In addition, the “Percentage inhibition of 3A4-BQ” value in [4] is recorded as 34% ^a. The Papp A→B (in general, how fast a substance crosses the layer from the apical side) at 20 μM in data set [9] stood at 33 ×10⁻⁶ cm/s. The “permeability (in words)” value with Caco-2 cell model is given as “high permeability”. The “Percentage inhibition of 1A2” value in [5] is on record as 6% ^a. Also, the “Percentage inhibition of 2C9” value in [6] was found to be 62% ^a. The “activity against 2C9 and 3A4-BFC (in words)” value in data set [10] (2C9 and 3A4-BFC) is on record as “weak activity”.
For the compound `CN(Cc1cccs1)C(=O)C12CC3CC(CC1C3)C2` [Compound 39, N-Methyl-N-(thiophen-2-ylmethyl)-tRicyclo[3.3.1.0^(3,7)]nonane-3-carboxamide], the melting point (in general, the temperature of the solid-liquid transition) was in the range of 87 to 88.5 °C. The IC50 on human 11β-HSD1 was determined as 1.08 µM.
For `CN(Cc1cccn1C)C(=O)C12CC3CC(CC(C3)C1)C2` [Compound 15, N-Methyl-N-((1-methyl-1H-pyrrol-2-yl)-methyl)adamantane-1-carboxamide], the IC50 at human 11β-HSD1 is 0.114 µM; in data set [1], 19 µM; in [2], more than 100 µM; in [3] it was more than 100 µM; in data set [4], 18 µM; in data set [5], more than 100 µM. In [6], this compound yielded an IC50 of more than 100 µM. The “fold more potent than compound 16” value on human 11β-HSD1 (N-methyl amide vs NH analogue 16) is “over 15 times”. In data set [8], this compound registered a half-life of 1 to 1.17 h. In addition, in [8], the “stability with human liver microsomes (in words)” value is reported as “moderate stability; also recorded: moderately stable; also recorded: relatively stable”. Also, in [10] (1A2, 2C9, 2C19, 2D6, 3A4-BFC, 3A4-BQ), the “inhibition of the key human cytochrome P450 enzymes (in words)” value is listed as “weak inhibitory activity; also recorded: very weak inhibition; also recorded: very weak inhibitory activity”.
In turn, `CN(Cc1sccc1N)C(=O)C12CC3CC(CC(C3)C1)C2` [Compound 7, N-((3-Aminothiophen-2-yl)methyl)-N-methyladamantane-1-carboxamide] came in with a melting point of 117 to 119 °C. In addition, the inhibition (commonly how much of the control response was suppressed) at 1 µM at human 11β-HSD1 (HEK293, 1 μM, HEK-293 cells transfected with HSD11B1, read-out: Percentage of inhibition measured at 1 μM) is 12%. Further, the “11β-HSD1 inhibitory activity (in words)” value on human 11β-HSD1 (at 1 μM where stated) is reported as “sharp decrease of activity”.
